Source: PubChem BioAssay AID256 (DTP/NCI, 2004)
“And” between values parts separate entries of the source, which are not always exact repeats. Equal entries are not always repeated. Inconclusive results and toxic doses are left out. Rule for the calls: active = survival T/C of 150% or more; inactive = T/C below 125% in these data.

Tested on: CD2F1 mice, L1210 leukemia ip, survival T/C
Assay: NCI In Vivo Anticancer Drug Screen. Data for tumor model L1210 Leukemia (intraperitoneal) in CD2F1 (CDF1) mice
Conditions: higher = longer survival
In short: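 In this screen, transplantable tumors were grown in mice given either the compound or its vehicle. Results were expressed as the treated measurement relative to the control measurement.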

[1] = endpoint: mean survival time, dose: 100.0 mg/kg/injection, schedule: Q04DX003 (ip), vehicle: saline with Tween-80
[2] = endpoint: mean survival time, dose: 200.0 mg/kg/injection, schedule: Q04DX003 (ip), vehicle: saline with Tween-80
[3] = endpoint: mean survival time, dose: 400.0 mg/kg/injection, schedule: Q04DX003 (ip), vehicle: saline with Tween-80
[4] = endpoint: mean survival time, dose: 50.0 mg/kg/injection, schedule: Q01DX009 (ip), vehicle: saline with Tween-80
[5] = endpoint: mean survival time, dose: 100.0 mg/kg/injection, schedule: Q01DX009 (ip), vehicle: saline with Tween-80
[6] = endpoint: mean survival time, dose: 100.0 mg/kg/injection, schedule: Q01DX001 (ip), vehicle: saline with Tween-80
[7] = endpoint: mean survival time, dose: 200.0 mg/kg/injection, schedule: Q01DX001 (ip), vehicle: saline with Tween-80
[8] = endpoint: mean survival time, dose: 400.0 mg/kg/injection, schedule: Q01DX001 (ip), vehicle: saline with Tween-80
[9] = endpoint: mean survival time, dose: 75.0 mg/kg/injection, schedule: Q01DX001 (ip), vehicle: saline

Measured: T/C

O=C(OCC1OC(n2cnc3c(=O)[nH][nH]c(=O)c32)C(OC(=O)c2ccccc2)C1OC(=O)c1ccccc1)c1ccccc1 (stereo not drawn)
inactive: endpoint: median survival time, dose: 8.25 mg/kg/injection, schedule: Q01DX005 (ip), vehicle: Klucel (hydroxypropylcellulose) (HPC) 104 % of control | endpoint: median survival time, dose: 16.5 mg/kg/injection, schedule: Q01DX005 (ip), vehicle: Klucel (hydroxypropylcellulose) (HPC) 98 % of control | endpoint: median survival time, dose: 33.0 mg/kg/injection, schedule: Q01DX005 (ip), vehicle: Klucel (hydroxypropylcellulose) (HPC) 97 % of control | endpoint: median survival time, dose: 66.0 mg/kg/injection, schedule: Q01DX005 (ip), vehicle: Klucel (hydroxypropylcellulose) (HPC) 101 % of control | endpoint: median survival time, dose: 132.0 mg/kg/injection, schedule: Q01DX005 (ip), vehicle: Klucel (hydroxypropylcellulose) (HPC) 102 % of control

COC(=O)N(C)c1cccc(OC(=O)N(C)C)c1
inactive: [1] 92 % of control | [2] 99 % of control | [3] 99 % of control

CNc1nc2c(N)ncnc2n1C1OC(CO)C(O)C1O (stereo not drawn)
inactive: endpoint: mean survival time, dose: 3.12 mg/kg/injection, schedule: Q01DX009 (ip), vehicle: saline 95 % of control | endpoint: mean survival time, dose: 6.25 mg/kg/injection, schedule: Q01DX009 (ip), vehicle: saline 106 % of control | endpoint: mean survival time, dose: 12.5 mg/kg/injection, schedule: Q01DX009 (ip), vehicle: saline 106 % of control and 107 % of control | endpoint: mean survival time, dose: 12.5 mg/kg/injection, schedule: Q04DX002 (ip), vehicle: saline 98 % of control | endpoint: mean survival time, dose: 25.0 mg/kg/injection, schedule: Q01DX005 (ip), vehicle: distilled water + Tween-80 96 % of control | endpoint: mean survival time, dose: 25.0 mg/kg/injection, schedule: Q01DX009 (ip), vehicle: saline 115 % of control and 101 % of control | endpoint: mean survival time, dose: 25.0 mg/kg/injection, schedule: Q04DX002 (ip), vehicle: saline 102 % of control | endpoint: mean survival time, dose: 50.0 mg/kg/injection, schedule: Q01DX005 (ip), vehicle: distilled water + Tween-80 103 % of control | endpoint: mean survival time, dose: 50.0 mg/kg/injection, schedule: Q01DX009 (ip), vehicle: saline 102 % of control | endpoint: mean survival time, dose: 50.0 mg/kg/injection, schedule: Q04DX002 (ip), vehicle: saline 112 % of control | endpoint: mean survival time, dose: 100.0 mg/kg/injection, schedule: Q01DX005 (ip), vehicle: distilled water + Tween-80 100 % of control | endpoint: mean survival time, dose: 100.0 mg/kg/injection, schedule: Q01DX009 (ip), vehicle: saline 108 % of control | endpoint: mean survival time, dose: 200.0 mg/kg/injection, schedule: Q01DX005 (ip), vehicle: distilled water + Tween-80 96 % of control | endpoint: mean survival time, dose: 400.0 mg/kg/injection, schedule: Q01DX005 (ip), vehicle: distilled water + Tween-80 101 % of control

O=c1[nH]cc(N=Cc2ccccc2O)c(=O)[nH]1.[Cl][Pt]
inactive: endpoint: mean survival time, dose: 3.13 mg/kg/injection, schedule: Q04DX003 (ip), vehicle: water 96 % of control | endpoint: mean survival time, dose: 6.25 mg/kg/injection, schedule: Q04DX003 (ip), vehicle: water 96 % of control | endpoint: mean survival time, dose: 12.5 mg/kg/injection, schedule: Q04DX003 (ip), vehicle: water 97 % of control | endpoint: mean survival time, dose: 25.0 mg/kg/injection, schedule: Q04DX003 (ip), vehicle: water 108 % of control | endpoint: mean survival time, dose: 50.0 mg/kg/injection, schedule: Q04DX003 (ip), vehicle: water 102 % of control | endpoint: mean survival time, dose: 100.0 mg/kg/injection, schedule: Q04DX003 (ip), vehicle: water 100 % of control | endpoint: mean survival time, dose: 200.0 mg/kg/injection, schedule: Q04DX003 (ip), vehicle: water 108 % of control

COc1c(O)ccc2c1CCCCC2=O
inactive: [4] 100 % of control | [5] 100 % of control | endpoint: mean survival time, dose: 200.0 mg/kg/injection, schedule: Q01DX009 (ip), vehicle: saline with Tween-80 100 % of control

CC(=O)Nc1ccc(S(=O)(=O)/N=S(\C)c2ccc(C)cc2)cc1 (stereo not drawn)
inactive: endpoint: mean survival time, dose: 100.0 mg/kg/injection, schedule: Q01DX009 (ip), vehicle: Klucel (hydroxypropylcellulose) (HPC) 95 % of control | endpoint: mean survival time, dose: 200.0 mg/kg/injection, schedule: Q01DX009 (ip), vehicle: Klucel (hydroxypropylcellulose) (HPC) 89 % of control | endpoint: mean survival time, dose: 400.0 mg/kg/injection, schedule: Q01DX009 (ip), vehicle: Klucel (hydroxypropylcellulose) (HPC) 91 % of control | endpoint: mean survival time, dose: 600.0 mg/kg/injection, schedule: Q01DX009 (ip), vehicle: Klucel (hydroxypropylcellulose) (HPC) 92 % of control

F[Si](c1ccc(Br)cc1)(c1ccc(Br)cc1)c1ccc(Br)cc1
inactive: [4] 102 % of control | [5] 94 % of control | [1] 95 % of control | [2] 93 % of control

Cc1c2ccccc2c(CN(C)CC(=O)NCC(=O)NCC(=O)O)c2ccccc12
inactive: [6] 103 % of control | [7] 92 % of control | [8] 92 % of control

COc1ccc(Br)cc1C1OC(=O)c2c(OC)c(OC)cc(N)c21 (stereo not drawn)
inactive: [1] 98 % of control | [2] 92 % of control | [3] 88 % of control

O=C(Nc1ccccc1)Nc1cc(Cl)ccc1O
inactive: [6] 98 % of control | [7] 98 % of control | [8] 91 % of control

CC(=O)OCC1OC(n2ccc(=O)[nH]c2=O)CC1N=[N+]=[N-] (stereo not drawn)
inactive: endpoint: median survival time, dose: 12.5 mg/kg/injection, schedule: Q01DX005 (ip), vehicle: saline with Tween-80 104 % of control | endpoint: median survival time, dose: 25.0 mg/kg/injection, schedule: Q01DX005 (ip), vehicle: saline with Tween-80 107 % of control | endpoint: median survival time, dose: 50.0 mg/kg/injection, schedule: Q01DX005 (ip), vehicle: saline with Tween-80 104 % of control | endpoint: median survival time, dose: 100.0 mg/kg/injection, schedule: Q01DX005 (ip), vehicle: saline with Tween-80 101 % of control | endpoint: median survival time, dose: 200.0 mg/kg/injection, schedule: Q01DX005 (ip), vehicle: saline with Tween-80 106 % of control

NC(=O)CC(NC(=O)C(F)(F)F)C(=O)O (stereo not drawn)
inactive: [9] 101 % of control | endpoint: mean survival time, dose: 150.0 mg/kg/injection, schedule: Q01DX001 (ip), vehicle: saline 95 % of control | endpoint: mean survival time, dose: 300.0 mg/kg/injection, schedule: Q01DX001 (ip), vehicle: saline 101 % of control

CC(C)(C)/[N+]([O-])=N/O
inactive: [9] 101 % of control
